Results reported in the kinase profiling compilation of Christmann-Franck et al. (2016).

Legend:
Details in all cases: compound 10.0 µM
KIT (human) = KIT (human) (UniProt P10721)
MAPK7 (human) = MAPK7 (human) (UniProt Q13164)
PRKACA (human) = PRKACA (human) (UniProt P17612)
EPHA3 (human) = EPHA3 (human) (UniProt P29320)
LIMK1 (human) = LIMK1 (human) (UniProt P53667)
STK10 (human) = STK10 (human) (UniProt O94804)
[1] = test system: KIT (human), P10721 [V559D/V654A]
MAP3K13 (human) = MAP3K13 (human) (UniProt O43283)
LATS1 (human) = LATS1 (human) (UniProt O95835)
NEK7 (human) = NEK7 (human) (UniProt Q8TDX7)
IRAK4 (human) = IRAK4 (human) (UniProt Q9NWZ3)
TNNI3K (human) = TNNI3K (human) (UniProt Q59H18)
MAST1 (human) = MAST1 (human) (UniProt Q9Y2H9)
MARK3 (human) = MARK3 (human) (UniProt P27448)
NEK11 (human) = NEK11 (human) (UniProt Q8NG66)
CaMK1 (human) = CaMK1 (human) (UniProt Q14012)
STK24 (human) = STK24 (human) (UniProt Q9Y6E0)
MKNK2 (human) = MKNK2 (human) (UniProt Q9HBH9)
PLK2 (human) = PLK2 (human) (UniProt Q9NYY3)
MAPK9 (human) = MAPK9 (human) (UniProt P45984)
ACVR2A (human) = ACVR2A (human) (UniProt P27037)
CDK13 (human) = CDK13 (human) (UniProt Q14004)
ACVR1B (human) = ACVR1B (human) (UniProt P36896)
DSTYK (human) = DSTYK (human) (UniProt Q6XUX3)
[2] = molecular target: TYK2 JH1 catalytic (human) (UniProt P29597)
MAPK8 (human) = MAPK8 (human) (UniProt P45983)
PAK6 (human) = PAK6 (human) (UniProt Q9NQU5)
STK17A (human) = STK17A (human) (UniProt Q9UEE5)
PTK2 (human) = PTK2 (human) (UniProt Q05397)
[3] = test system: FLT3 (human), P36888 [ITD]
CLK3 (human) = CLK3 (human) (UniProt P49761)
AXL (human) = AXL (human) (UniProt P30530)
CPK1 (P.falciparum) = test system: CPK1 (P.falciparum)
MYLK (human) = MYLK (human) (UniProt Q15746)
FES (human) = FES (human) (UniProt P07332)
MET (human) = MET (human) (UniProt P08581)
MARK2 (human) = MARK2 (human) (UniProt Q7KZI7)
SGK110 (human) = SGK110 (human) (UniProt P0C264)
STK33 (human) = STK33 (human) (UniProt Q9BYT3)
MAP2K5 (human) = MAP2K5 (human) (UniProt Q13163)
CSK (human) = CSK (human) (UniProt P41240)
IKBKE (human) = IKBKE (human) (UniProt Q14164)

Chain of MKNK2 (human) (Q9HBH9 whole entry, looked up): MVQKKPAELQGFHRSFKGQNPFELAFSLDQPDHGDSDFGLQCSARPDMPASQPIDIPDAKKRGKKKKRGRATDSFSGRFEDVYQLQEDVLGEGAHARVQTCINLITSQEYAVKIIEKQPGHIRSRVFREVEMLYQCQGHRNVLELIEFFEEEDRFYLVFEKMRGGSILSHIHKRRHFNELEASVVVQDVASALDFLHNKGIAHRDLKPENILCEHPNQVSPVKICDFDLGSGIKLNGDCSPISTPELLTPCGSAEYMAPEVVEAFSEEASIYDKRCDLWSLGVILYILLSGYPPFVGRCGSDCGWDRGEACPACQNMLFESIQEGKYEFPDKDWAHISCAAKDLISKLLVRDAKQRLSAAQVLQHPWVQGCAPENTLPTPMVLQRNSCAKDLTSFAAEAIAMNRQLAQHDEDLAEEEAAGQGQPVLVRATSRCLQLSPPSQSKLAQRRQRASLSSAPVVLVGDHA
Chain of MET (human) (P08581 whole entry, looked up): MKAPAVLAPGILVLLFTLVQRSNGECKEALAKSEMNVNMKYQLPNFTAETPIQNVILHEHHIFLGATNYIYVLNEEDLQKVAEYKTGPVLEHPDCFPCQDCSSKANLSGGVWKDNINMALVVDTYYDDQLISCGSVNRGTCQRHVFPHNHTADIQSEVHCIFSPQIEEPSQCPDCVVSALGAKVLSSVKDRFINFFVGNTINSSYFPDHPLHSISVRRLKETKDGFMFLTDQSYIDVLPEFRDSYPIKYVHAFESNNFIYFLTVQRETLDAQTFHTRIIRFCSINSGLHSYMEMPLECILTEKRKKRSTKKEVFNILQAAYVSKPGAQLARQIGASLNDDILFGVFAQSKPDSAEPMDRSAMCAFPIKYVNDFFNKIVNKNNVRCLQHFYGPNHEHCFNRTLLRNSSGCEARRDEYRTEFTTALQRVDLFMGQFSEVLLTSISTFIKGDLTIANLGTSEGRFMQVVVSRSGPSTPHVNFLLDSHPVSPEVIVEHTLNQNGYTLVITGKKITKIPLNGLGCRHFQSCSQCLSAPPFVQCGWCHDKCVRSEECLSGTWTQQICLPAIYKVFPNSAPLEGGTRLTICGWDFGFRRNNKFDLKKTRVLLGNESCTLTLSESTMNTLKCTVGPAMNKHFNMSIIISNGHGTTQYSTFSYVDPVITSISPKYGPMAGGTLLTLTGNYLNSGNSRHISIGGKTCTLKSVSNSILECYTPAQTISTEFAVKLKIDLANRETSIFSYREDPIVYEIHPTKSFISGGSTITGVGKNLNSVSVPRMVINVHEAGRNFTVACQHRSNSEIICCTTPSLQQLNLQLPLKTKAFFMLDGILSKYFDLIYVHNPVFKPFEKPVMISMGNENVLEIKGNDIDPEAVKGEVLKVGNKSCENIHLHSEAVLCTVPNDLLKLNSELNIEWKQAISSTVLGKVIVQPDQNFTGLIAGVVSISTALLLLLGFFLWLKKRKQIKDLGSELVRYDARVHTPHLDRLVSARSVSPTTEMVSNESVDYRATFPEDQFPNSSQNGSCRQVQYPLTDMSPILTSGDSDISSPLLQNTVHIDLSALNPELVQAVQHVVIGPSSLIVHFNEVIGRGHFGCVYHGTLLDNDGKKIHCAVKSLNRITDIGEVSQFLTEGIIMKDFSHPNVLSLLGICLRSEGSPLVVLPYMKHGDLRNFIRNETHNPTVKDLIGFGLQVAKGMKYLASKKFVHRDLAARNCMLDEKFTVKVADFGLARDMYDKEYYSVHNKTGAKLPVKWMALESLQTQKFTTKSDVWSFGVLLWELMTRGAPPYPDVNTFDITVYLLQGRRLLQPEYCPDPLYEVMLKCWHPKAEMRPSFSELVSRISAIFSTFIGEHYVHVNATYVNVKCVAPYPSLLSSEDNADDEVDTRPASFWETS
Chain of SGK110 (human) (P0C264 whole entry, looked up): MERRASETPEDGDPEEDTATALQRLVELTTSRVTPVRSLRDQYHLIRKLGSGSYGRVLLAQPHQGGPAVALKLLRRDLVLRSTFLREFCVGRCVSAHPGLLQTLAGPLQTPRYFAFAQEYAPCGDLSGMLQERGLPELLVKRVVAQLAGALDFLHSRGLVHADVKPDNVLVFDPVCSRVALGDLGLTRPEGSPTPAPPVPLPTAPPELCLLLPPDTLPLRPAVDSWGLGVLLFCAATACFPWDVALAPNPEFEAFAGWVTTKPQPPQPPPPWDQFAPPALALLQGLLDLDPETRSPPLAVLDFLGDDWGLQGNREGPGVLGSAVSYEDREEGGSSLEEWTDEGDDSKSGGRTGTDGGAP
Chain of KIT (human) (P10721 whole entry, looked up): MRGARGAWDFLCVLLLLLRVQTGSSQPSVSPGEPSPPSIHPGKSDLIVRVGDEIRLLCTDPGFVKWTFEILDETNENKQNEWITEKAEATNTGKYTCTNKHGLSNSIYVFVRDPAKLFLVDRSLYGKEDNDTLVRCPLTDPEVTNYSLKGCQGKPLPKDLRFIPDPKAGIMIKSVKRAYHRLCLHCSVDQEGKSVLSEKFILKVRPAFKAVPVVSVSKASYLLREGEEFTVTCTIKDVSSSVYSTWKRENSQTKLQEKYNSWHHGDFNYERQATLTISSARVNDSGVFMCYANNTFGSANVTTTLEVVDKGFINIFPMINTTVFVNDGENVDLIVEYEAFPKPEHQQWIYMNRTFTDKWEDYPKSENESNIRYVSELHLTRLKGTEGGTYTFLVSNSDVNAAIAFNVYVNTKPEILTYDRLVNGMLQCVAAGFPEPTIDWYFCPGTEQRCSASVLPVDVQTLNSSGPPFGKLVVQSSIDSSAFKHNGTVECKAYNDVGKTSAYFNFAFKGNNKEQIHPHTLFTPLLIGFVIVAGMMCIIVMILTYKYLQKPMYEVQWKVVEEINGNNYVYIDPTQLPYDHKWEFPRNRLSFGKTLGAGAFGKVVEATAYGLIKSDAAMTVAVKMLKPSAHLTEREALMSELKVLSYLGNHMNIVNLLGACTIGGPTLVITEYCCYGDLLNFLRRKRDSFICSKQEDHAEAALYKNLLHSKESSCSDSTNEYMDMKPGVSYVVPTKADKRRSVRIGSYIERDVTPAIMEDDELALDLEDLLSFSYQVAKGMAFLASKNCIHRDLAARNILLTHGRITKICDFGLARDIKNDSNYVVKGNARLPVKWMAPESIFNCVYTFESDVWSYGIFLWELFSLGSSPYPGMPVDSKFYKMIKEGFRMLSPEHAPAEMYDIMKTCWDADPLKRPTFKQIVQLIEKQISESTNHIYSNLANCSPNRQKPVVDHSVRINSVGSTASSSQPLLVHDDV
Chain of STK24 (human) (Q9Y6E0 whole entry, looked up): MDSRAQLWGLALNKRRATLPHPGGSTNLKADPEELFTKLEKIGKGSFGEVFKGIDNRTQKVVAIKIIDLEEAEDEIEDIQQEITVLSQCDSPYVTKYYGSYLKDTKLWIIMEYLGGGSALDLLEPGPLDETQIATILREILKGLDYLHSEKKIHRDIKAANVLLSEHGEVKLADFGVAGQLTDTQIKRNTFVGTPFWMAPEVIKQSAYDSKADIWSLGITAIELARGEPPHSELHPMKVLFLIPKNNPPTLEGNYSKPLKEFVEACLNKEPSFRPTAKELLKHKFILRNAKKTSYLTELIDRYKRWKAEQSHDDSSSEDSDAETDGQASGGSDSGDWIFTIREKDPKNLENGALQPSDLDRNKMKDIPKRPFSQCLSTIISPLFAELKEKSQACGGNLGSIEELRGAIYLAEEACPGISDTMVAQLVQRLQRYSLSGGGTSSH
Chain of EPHA3 (human) (P29320 whole entry, looked up): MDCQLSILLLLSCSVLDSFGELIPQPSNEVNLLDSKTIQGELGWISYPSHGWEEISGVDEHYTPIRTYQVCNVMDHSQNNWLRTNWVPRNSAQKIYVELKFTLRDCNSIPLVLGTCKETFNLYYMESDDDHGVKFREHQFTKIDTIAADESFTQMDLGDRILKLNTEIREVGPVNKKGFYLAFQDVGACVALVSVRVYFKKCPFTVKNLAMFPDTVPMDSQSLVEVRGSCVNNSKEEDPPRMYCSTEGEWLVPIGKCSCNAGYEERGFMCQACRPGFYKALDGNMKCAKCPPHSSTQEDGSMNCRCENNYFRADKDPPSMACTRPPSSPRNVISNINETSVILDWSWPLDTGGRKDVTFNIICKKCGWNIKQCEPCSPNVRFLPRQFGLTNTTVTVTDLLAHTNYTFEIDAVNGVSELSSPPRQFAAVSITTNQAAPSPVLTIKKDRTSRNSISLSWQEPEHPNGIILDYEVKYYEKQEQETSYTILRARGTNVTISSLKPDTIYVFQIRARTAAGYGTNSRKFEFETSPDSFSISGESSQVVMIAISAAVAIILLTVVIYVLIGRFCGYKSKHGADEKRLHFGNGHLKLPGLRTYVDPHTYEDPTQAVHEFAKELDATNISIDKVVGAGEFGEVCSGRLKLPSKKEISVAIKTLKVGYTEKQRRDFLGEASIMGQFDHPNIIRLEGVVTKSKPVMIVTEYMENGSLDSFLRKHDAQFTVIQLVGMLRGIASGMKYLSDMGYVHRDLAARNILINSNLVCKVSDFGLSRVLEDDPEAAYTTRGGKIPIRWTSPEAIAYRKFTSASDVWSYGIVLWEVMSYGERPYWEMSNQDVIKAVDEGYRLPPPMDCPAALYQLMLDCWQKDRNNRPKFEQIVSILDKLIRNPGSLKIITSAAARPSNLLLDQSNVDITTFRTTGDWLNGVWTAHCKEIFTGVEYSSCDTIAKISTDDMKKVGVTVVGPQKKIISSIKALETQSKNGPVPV
Chain of MAPK9 (human) (P45984 whole entry, looked up): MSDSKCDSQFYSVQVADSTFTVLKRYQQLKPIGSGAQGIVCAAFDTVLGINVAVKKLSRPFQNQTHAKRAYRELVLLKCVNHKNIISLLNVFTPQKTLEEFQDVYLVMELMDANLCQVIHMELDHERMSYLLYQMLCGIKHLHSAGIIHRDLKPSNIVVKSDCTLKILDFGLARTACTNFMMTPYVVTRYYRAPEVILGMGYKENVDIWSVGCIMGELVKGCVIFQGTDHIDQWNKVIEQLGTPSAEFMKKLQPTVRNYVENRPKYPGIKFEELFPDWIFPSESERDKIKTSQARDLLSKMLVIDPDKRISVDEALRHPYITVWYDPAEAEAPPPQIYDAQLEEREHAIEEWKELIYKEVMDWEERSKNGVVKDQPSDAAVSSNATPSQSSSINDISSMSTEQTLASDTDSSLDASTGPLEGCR

`CNC(=O)c1cc(Oc2ccc(NC(=O)Nc3ccc(Cl)c(C(F)(F)F)c3)cc2)ccn1` gave a per cent of control (KIT (human)) of 0%, a per cent of control (MAPK7 (human)) of 81% and a per cent of control (PRKACA (human)) of 100%. The per cent of control (EPHA3 (human)) was 4%, the per cent of control (LIMK1 (human)) was 7.6% and the per cent of control (STK10 (human)) was 0%. The per cent of control [1] was 0.45%, the per cent of control (MAP3K13 (human)) was 88% and the per cent of control (LATS1 (human)) was 79%. It also gave a per cent of control (NEK7 (human)) of 100%, a per cent of control (IRAK4 (human)) of 100% and a per cent of control (TNNI3K (human)) of 2.4%. For the same compound, the per cent of control (MAST1 (human)) was 100%, the per cent of control (MARK3 (human)) was 86% and the per cent of control (NEK11 (human)) was 99%. It also gave a per cent of control (CaMK1 (human)) of 87%, a per cent of control (STK24 (human)) of 81% and a per cent of control (MKNK2 (human)) of 0.1%. The per cent of control (PLK2 (human)) was 100%, the per cent of control (MAPK9 (human)) was 21% and the per cent of control (ACVR2A (human)) was 100%. It also gave a per cent of control (CDK13 (human)) of 98%, a per cent of control (ACVR1B (human)) of 56% and a per cent of control (DSTYK (human)) of 100%. The per cent of control [2] was 100%, the per cent of control (MAPK8 (human)) was 88% and the per cent of control (PAK6 (human)) was 86%. The per cent of control (STK17A (human)) was 58%, the per cent of control (PTK2 (human)) was 100% and the per cent of control [3] was 0.5%. It also gave a per cent of control (CLK3 (human)) of 84%, a per cent of control (AXL (human)) of 5.4% and a per cent of control (CPK1 (P.falciparum)) of 0.8%. It also gave a per cent of control (MYLK (human)) of 100%, a per cent of control (FES (human)) of 72% and a per cent of control (MET (human)) of 74%. The per cent of control (MARK2 (human)) was 67%, the per cent of control (SGK110 (human)) was 91% and the per cent of control (STK33 (human)) was 6%. For the same compound, the per cent of control (MAP2K5 (human)) was 0.35%, the per cent of control (CSK (human)) was 52% and the per cent of control (IKBKE (human)) was 100%.

Compound `CNC(=O)c1cc(Oc2ccc(NC(=O)Nc3ccc(Cl)c(C(F)(F)F)c3)cc2)cc[n+]1[O-]` has a per cent of control (KIT (human)) of 0%, a per cent of control (MAPK7 (human)) of 65% and a per cent of control (PRKACA (human)) of 100%. The per cent of control (EPHA3 (human)) was 4%, the per cent of control (LIMK1 (human)) was 8.5% and the per cent of control (STK10 (human)) was 0%. For the same compound, the per cent of control [1] was 0.45%, the per cent of control (MAP3K13 (human)) was 68% and the per cent of control (LATS1 (human)) was 53%. For the same compound, the per cent of control (NEK7 (human)) was 100%, the per cent of control (IRAK4 (human)) was 100% and the per cent of control (TNNI3K (human)) was 2.4%. For the same compound, the per cent of control (MAST1 (human)) was 100%, the per cent of control (MARK3 (human)) was 86% and the per cent of control (NEK11 (human)) was 100%. For the same compound, the per cent of control (CaMK1 (human)) was 58%, the per cent of control (STK24 (human)) was 14% and the per cent of control (MKNK2 (human)) was 0.05%. It also gave a per cent of control (PLK2 (human)) of 77%, a per cent of control (MAPK9 (human)) of 0.05% and a per cent of control (ACVR2A (human)) of 89%. For the same compound, the per cent of control (CDK13 (human)) was 40%, the per cent of control (ACVR1B (human)) was 44% and the per cent of control (DSTYK (human)) was 68%. It also gave a per cent of control [2] of 100%, a per cent of control (MAPK8 (human)) of 13% and a per cent of control (PAK6 (human)) of 82%. The per cent of control (STK17A (human)) was 66%, the per cent of control (PTK2 (human)) was 97% and the per cent of control [3] was 0.4%. The per cent of control (CLK3 (human)) was 100%, the per cent of control (AXL (human)) was 1.8% and the per cent of control (CPK1 (P.falciparum)) was 0.15%. The per cent of control (MYLK (human)) was 100%, the per cent of control (FES (human)) was 98% and the per cent of control (MET (human)) was 16%. The per cent of control (MARK2 (human)) was 87%, the per cent of control (SGK110 (human)) was 100% and the per cent of control (STK33 (human)) was 6.9%. It also gave a per cent of control (MAP2K5 (human)) of 0.1%, a per cent of control (CSK (human)) of 1% and a per cent of control (IKBKE (human)) of 100%.
